This is an account of results in ChEMBL document CHEMBL5335832, “Cavomycins A-C, Linear Oligomer Depsipeptides from an Annelid-Associated Streptomyces cavourensis” (J Nat Prod, 2024).

Calls of active or inactive are those of the source. The calls are words filed in the database; no cut-off is given here.

Experiment [1] relates to PANC-1. Nature of the experiment: Antiproliferative activity against human PANC-1 cells assessed as inhibition of cell growth incubated for 72 hrs by MTT assay. Particulars: PANC-1, 72 h. Format: functional, cell-based. On the technique in general: Tetrazolium dyes change colour on reduction, which living cells bring about.
Experiment [2] concerns PANC-1. The experiment can be described thus: Antiproliferative activity against human PANC-1 cells assessed as inhibition of cell growth at 20 to 100 uM incubated for 72 hrs by MTT assay. The class given is functional, cell-based. Particulars: dose 20-100 µM.

For orientation: IC50 means the midpoint of a concentration-inhibition curve.

Consider `CC(C)[C@H](NC(=O)[C@H](C)O)C(=O)O[C@@H](C(=O)N[C@@H](C(=O)O[C@@H](C)C(=O)N[C@H](C(=O)O[C@@H](C(=O)N[C@@H](C(=O)O[C@@H](C)C(=O)N[C@H](C(=O)O[C@@H](C(=O)N[C@@H](C(=O)O)C(C)C)C(C)C)C(C)C)C(C)C)C(C)C)C(C)C)C(C)C)C(C)C`, for which the 50% inhibitory concentration (IC50) in experiment [1] turned out to be 1200 nM. On to `CC(C)[C@H](NC(=O)[C@H](C)OC(=O)[C@H](NC(=O)[C@H](OC(=O)[C@@H](NC(=O)[C@H](C)OC(=O)[C@H](NC(=O)[C@H](OC(=O)[C@@H](NC(=O)[C@H](C)O)C(C)C)C(C)C)C(C)C)C(C)C)C(C)C)C(C)C)C(=O)O`, for which the outcome in experiment [2] was inactive. Take `COC(=O)[C@H](NC(=O)[C@H](OC(=O)[C@@H](NC(=O)[C@H](C)OC(=O)[C@H](NC(=O)[C@H](OC(=O)[C@@H](NC(=O)[C@H](C)OC(=O)[C@H](NC(=O)[C@H](OC(=O)[C@@H](NC(=O)[C@H](C)O)C(C)C)C(C)C)C(C)C)C(C)C)C(C)C)C(C)C)C(C)C)C(C)C)C(C)C`: in experiment [1], the IC50 worked out at 1700 nM. `CC(C)[C@H](NC(=O)[C@H](C)OC(=O)[C@H](NC(=O)[C@H](OC(=O)[C@@H](NC(=O)[C@H](C)OC(=O)[C@H](NC(=O)[C@H](OC(=O)[C@@H](NC(=O)[C@H](C)OC(=O)[C@@H](NC(=O)[C@H](C)O)C(C)C)C(C)C)C(C)C)C(C)C)C(C)C)C(C)C)C(C)C)C(=O)O`: the result in experiment [2] was inactive.
